Experimental data from publication PMC9867837 (Cancer letters, 2022).

What was measured:
[1] = test system: Stat3-independent pLucSRE luciferase reporter; assay: Stat3-independent luciferase reporter pLucSRE in NIH3T3/v-Src; format: cell-based, mouse; settings: 1–3 μM H182 for 1 h
[2] = test system: MDA-MB-231 cells; assay: Annexin V/propidium iodide staining with flow cytometry; format: cell-based, human; settings: 3 μM H182 for 3 h
Procedure: For apoptosis analysis, annexin V/propidium iodide (PI) staining was performed. Details are presented in Supplementary Information, “Methods”. […]
software and Prism GraphPad software (San Diego, CA), using the one-site model. Control experiments were carried out by titration H182 into buffer, buffer into Stat3, and buffer into buffer. The three controls were used as a composite for the ITC experiment to subtract the heat of dilution and background noise from […]
1.2.11. Wound healing assay for migration
Studies were performed as previously reported [1 -3]. Briefly, cells were cultured in 6-well plates, and the monolayer of cells was scratched with a p10 pipet tip. Subsequently, fresh medium containing inhibitors or DMSO (control) was added, and then immediately, cells were imaged with a Canon Powershot A640 digital camera under a phase contrast with the Zeiss Axiovert 200 inverted microscope at 10X magnification and noted as the zero time-point. Following culture for 22 h to allow cells to migrate into the denuded area, the culture was then imaged again at the same field that was marked on the plate.
1.2.12. Annexin V binding/apoptosis and flow cytometric analysis
For apoptosis analysis, annexin V/propidium iodide (PI) staining was performed. […] The annexin V- and/or PI-positive cells were analyzed by FACScan flow cytometer (BD Biosciences) and data was analyzed using FlowJo software. […]

[3] = test system: c-Myc, survivin and vascular endothelial growth factor (VEGF); assay: Immunoblotting for Stat3 downstream genes in cells; format: cell-based, human; settings: MDA-MB-231, doses that inhibit Stat3 activity
Procedure: These studies were performed as previously described. Details are presented in Supplementary Information, “Methods”.
Aberrantly-active Stat3 promotes tumor cell growth and proliferation, survival, migration, invasion, and metastasis.
These studies were performed as previously described [1 -3] . Briefly, snap-frozen tumor tissues or cultured cells treated or not were harvested and whole-cell or tissue lysates were prepared in radioimmunoprecipitation assay (RIPA) buffer. Samples of equal total protein were subjected to SDS - PAGE and immunoblotting analysis. Primary antibodies used were anti- Stat3, pY705-Stat3, pS727Stat3, […]
Akt, pT202/Y204Erk1/2 (p44/42), Erk1/2, PARP , caspase 3, c-Myc, survivin, VEGF, β-actin, α/β-tubulin, and GAPDH. For the studies of the effects of cell density and confluence on pY705Stat3, cells were seeded […] in culture dishes. The next day, cells were untreated (DMSO control, […]
0.1%) or treated at the same time with 1 or 2 µM H182, allowed to incubate for the indicated time and then harvested for whole-cell lysate preparation and SDS -PAGE / immunoblotting analy sis. […]
concentration of H182 for 6 h and then treated with 0- 100 nM docetaxel or 0-20 µM cisplatin for a total of 72 h. Viable cell numbers were assessed by a CyQuant cell proliferation kit according to the manufacturer’s instructions (Thermo/Life Technologies Corp, Carlsbad, CA). […]

[4] = test system: MDA-MB-231 tumor xenografts; assay: Subcutaneous MDA-MB-231 xenografts in athymic nude mice; format: in vivo
Procedure: Mice were housed in specific pathogen-free conditions in the animal facility. All animal experiments were conducted in accordance with the recommendations in the Guide for the Care and Use of Laboratory Animals on a protocol approved by the Institutional Animal Care and Use Committee (IACUC). Subcutaneous xenograft studies were performed as previously reported. Five-week-old female athymic nude mice were purchased from Envigo (Indianapolis, IN) or Charles River (Wilmington, MA) and maintained in the institutional animal facilities approved by the American Association for Accreditation of Laboratory Animal Care. […] Tumor sizes were monitored every 3–4 days, measured with calipers, and converted to tumor volume, V, according to the formula V = 0.52 × a^2 × b, where a, smallest superficial diameter, and b, largest superficial diameter. For each treatment group, the tumor volumes for each set of measurements were statistically analyzed relative to the control (DMSO-treated; 70% DMSO with sterile PBS) group.
Constitutively-active Stat3 promotes primary tumor development and the progression to therapy resistance. We proceeded to evaluate the in vivo antitumor efficacy against tumor growth in both human xenograft and mouse syngeneic models of TNBC. In four separate studies, we tested the efficacy of H182, H278 (HCl salt of H182), and H120. For these xenografts, the human breast cancer, MDA-MB-231 cells were injected subcutaneously into athymic nude mice. When tumors were palpable (80–120 mm^3), mice were grouped so that the mean tumor sizes were identical between groups and treated as follows: A) intraperitoneal (IP) injections of H182 at 10 mg/kg every other day for 33 days; B) oral gavage of H182 every day at 5 mg/kg for 20 days, and then increased to 20 mg/kg for additional 12 days; and C) oral gavage of H120 at 20 mg/kg, daily for 14 days, and then increased to 30 mg/kg, daily for additional 14 days.

[5] = Human hepatocyte stability; format: in vitro ADME
Procedure: The in vivo activity of a compound is influenced by its overall bioavailability, which is also driven by parameters, such as solubility, permeability, and metabolism. […] These values are all above the industry cut-off of 60 μg/ml. […] It has CLint in human hepatocytes of 16 μL/min/10^6 cells, which falls into moderate stability range [43].

[6] = Plasma stability, mouse; format: in vitro ADME
Procedure: Solubility, human (HLM) and mouse liver microsomal (MLM), and plasma stability studies were performed by Eurofins Cerep Panlabs and Eurofin Discovery Services (www.eurofins.com/PharmaDiscovery), while protein binding studies were performed by Sanford Burnham Prebys Chemical Biology & Drug Discovery Core using standard protocols.

Compound: O=C([C@H]1CCN1S(=O)(=O)c1c(F)c(F)c(F)c(F)c1F)N(Cc1ccc(C2CCCCC2)cn1)c1ccc2c(=O)[nH]ncc2c1 [Compound H182]
- Effect on pLucSRE luciferase reporter expression [1]: no changes
- Annexin V/PI double-positive staining [2]: roughly 12%
- Expression of c-Myc, survivin and VEGF in cells [3]: rapidly suppressed
- Tumor growth, MDA-MB-231 xenografts ([4]; H182 IP 10 mg/kg every other day for 33 days): significant tumor growth inhibition
- Tumor growth, MDA-MB-231 xenografts ([4]; H182 oral gavage daily 5 mg/kg for 20 days, then 20 mg/kg for 12 days): significant tumor growth inhibition
- Body weights and obvious signs of toxicity ([4]; the three xenograft studies): No notable changes
- Metabolic Stability Human Hepatocytes CLint [5]: 14.6 μL/min/10^6 cells
- half-life ([5]; hepatocytes, read-out: Human Hepatocytes t1/2): 1.13 h
- hepatocyte CLint ([5]; hepatocytes, read-out: Metabolic Stability Human Hepatocytes CLint): 16 µL/min/1e6 cells
- remaining at 1 h ([6]; 1 h): 69%
- remaining at 2 h ([6]; 2 h): 23%
